The record followed here is patent US7741540B2, “Compositions comprising D-amino acids” (BASF Plant Science GmbH, priority 2002, dated 2010).

Entries after “also recorded” stand apart in the source; their conditions may differ. Some results are limits rather than exact numbers.

In data set [1] the test system is Arabidopsis thaliana expressing Rhodotorula gracilis D-amino acid oxidase (dao1). In words: Growth of plants expressing D-amino acid oxidase on D-amino acid media in sterile agar culture. The class given is in vivo. From the text: Transgenic plants expressing D-amino acid oxidase were constructed essentially in the same way as the dsdA plants described above, with the following modifications: The dao1 gene (EC: 1.4.3.3 (SEQ ID NO: 6): NCBIU60066 (SEQ ID NO: 5)) from the yeast Rhodotorula gracilis (Rhodosporidium toruloides) was cloned with PCR with a cDNA library prepared from yeast grown on D-alanine containing medium to induce expression of the target gene, as a template. PCR primers were 5′-[…] (SEQ ID NO: 3) and 5′-[…] (SEQ ID NO: 4).
PCR was also performed with another set of primers, with one primer flanking the 5′ end of the open reading frame as set out above and a 3′ primer excluding the last […] nucleotides. The last nine nucleotides encode the signal peptide SKL, which guides the protein to the peroxisome sub-cellular organelle.
The resulting amplified sequences encode proteins which have the same amino acid sequence but which differ in the respect of their location in the cell. The truncated polypeptide, without the signal peptide, is expressed in the cytosol, while the full-length polypeptide is expressed in the peroxisome.
Construction of Arabidopsis thaliana plants expressing two variants of Rhodotorula gracilis D-amino acid oxidase were made as described above.

Data set [2] deals with wild type Arabidopsis. As to the kind of experiment: Growth of wild type plants on D-Asn or D-ile in sterile agar culture. The data set is classed as in vivo, Arabidopsis thaliana.
Data set [3] deals with transgenic Arabidopsis thaliana expressing E. coli D-serine ammonia-lyase (dsdA). As to the kind of experiment: Growth and N content of transgenic plants expressing dsdA on D-serine media. The class given is in vivo. The text has this:
The E. coli gene dsdA (D-serine dehydratase (D-serine deaminase) [EC:4.3.1.18 (SEQ ID NO: 8)] NCBI accession number J01603 (SEQ ID NO: 7)) was amplified by PCR using primers 5′-[…] (SEQ ID NO: 1) and 5′-[…] (SEQ ID NO: 2). The PCR product was sub-cloned into pT-easy (Promega) and sequenced with DYEnamics cycle sequencing kit, (Amersham Pharmacia biotech). Alignment analysis with the database sequence confirmed successful full length cloning of dsdA. The clone was subsequently ligated into the BamH1 site of the CaMV 35S expression cassette of the binary vector pPCV702Km, which is a disarmed Ti-plasmid of Agrobacterium tumefaciens, to generate the vector pPCV702:dsdA. Restriction analysis of this vector with endonuclease confirmed orientation of insertion.
A. thaliana, ecotype Col-0, plants were transformed with Agrobacterium tumefaciens strain (GV3101:pMP90 RK) through vacuum infiltration (Clough, S. J. & Bent, A. F. Plant Journal. 16, 735-743 (1998)). Transformants were selected on kanamycin containing plates, and molecularly confirmed using northern blots. All analyses were performed using lines homozygous for the transgenic trait.
(§1) A. thaliana seeds from non-transformed plants and D-Serine ammonia-lyase transformed plants were surface sterilised with 70% ethanol and 0.1% Tween 80 for 10 minutes and rinsed briefly in 95% ethanol. 10 seeds were sown in each plate and the plates where thereafter sealed with gas permeable tape. The growth medium was half-strength MS (Murashige, T. & Skoog, F. Physiol Plant 15, 310-313 (1962)) (with 0.5% w/v sucrose and 0.8% w/v agar) with nitrogen either excluded or included as 3 mM nitrate. Filter sterilised D-serine was added to the medium after autoclaving. Plants were grown for 14 days after germination with a 16 h photoperiod at 24° C. Plants were extracted from the plates, washed three times in 0.5 mM CaCl2 and thereafter dried at 40° C. for 48 hours before dry weight measurements. The N content was determined on dried plants using an elemental analyser (PerkinElmer 2400 CHN). Biomass and nitrogen content were measured on a per plate basis and there were 10 plants per plate. Six independent transgenic lines were evaluated for their capacity to grow on D-serine and no substantial difference was noticed among the lines, although dsdA transcript levels varied substantially according to northern blot analyses.
Transgenic Arabidopsis thaliana plants expressing the gene encoding D-serine dehydratase were grown sterile alongside wild type plants on agar for 20 days on standard MS medium supplemented with varying concentrations of D-serine as the sole N source (30 mM, 3 mM, 0.3 mM) along with a control lacking any nitrogen.

Data set [4] deals with Populus tremuloides. In words: Growth of wild-type seedlings on nitrate free agar media amended with D-serine. The class given is in vivo. The conditions noted are these: two to three weeks, 0, 0.3, 3 and 30 mM tested. The procedure:
as §1, with “analyses. Seeds from Solanum esculentum, Hordeum vulgare, Zea mays, Populus tremuloides, Nicotiana tabacum and Arabidopsis thaliana were surface sterilised and grown for two to three weeks on agar media identical to the nitrate free media described above and amended with 0, 0.3, 3 and 30 mM D-serine.” for “analyses.”

For data set [5], the system named is Lycopersicon esculentum. The description is as above. The settings on record: two to three weeks, 0, 0.3, 3 and 30 mM tested. The data set is classed as in vivo. The procedure:
as §1, with “analyses. Seeds from Solanum esculentum, Hordeum vulgare, Zea mays, Populus tremuloides, Nicotiana tabacum and Arabidopsis thaliana were surface sterilised and grown for two to three weeks on agar media identical to the nitrate free media described above and amended with 0, 0.3, 3 and 30 mM D-serine.” for “analyses.”

For data set [6], the system named is Zea mays. Described as above. The settings on record: two to three weeks, 0, 0.3, 3 and 30 mM tested. The class given is in vivo. The method, then: as §1, with “analyses. Seeds from Solanum esculentum, Hordeum vulgare, Zea mays, Populus tremuloides, Nicotiana tabacum and Arabidopsis thaliana were surface sterilised and grown for two to three weeks on agar media identical to the nitrate free media described above and amended with 0, 0.3, 3 and 30 mM D-serine.” for “analyses.”

For data set [7], the system named is Nicotiana tabacum. Described as above. The data set is classed as in vivo. The conditions noted are these: two to three weeks, 0, 0.3, 3 and 30 mM tested. The method, then:
as §1, with “analyses. Seeds from Solanum esculentum, Hordeum vulgare, Zea mays, Populus tremuloides, Nicotiana tabacum and Arabidopsis thaliana were surface sterilised and grown for two to three weeks on agar media identical to the nitrate free media described above and amended with 0, 0.3, 3 and 30 mM D-serine.” for “analyses.”

In data set [8] the test system is Hordeum vulgare. The description is as above. The data set is classed as in vivo. The settings on record: two to three weeks, 0, 0.3, 3 and 30 mM tested. The procedure: as §1, with “analyses. Seeds from Solanum esculentum, Hordeum vulgare, Zea mays, Populus tremuloides, Nicotiana tabacum and Arabidopsis thaliana were surface sterilised and grown for two to three weeks on agar media identical to the nitrate free media described above and amended with 0, 0.3, 3 and 30 mM D-serine.” for “analyses.”

Data set [9] relates to poplar transformed with dsdA. As to the kind of experiment: Resistance of dsdA-transformed plants to D-Ser. The conditions noted are these: in vivo. The text has this: (§2) Poplar and tobacco were transformed using the same vector and transformation protocol described above for the transformation of Arabidopsis.
Data set [10] has as its system tobacco transformed with dsdA. As to the kind of experiment: Resistance of dsdA-transformed plants to D-Ser. The settings on record: in vivo.
Source text: as §2

The test system of data set [11] is Somatic embryonic cell suspension cultures of Picea abies. As to the kind of experiment: Somatic embryonic cell suspension cultures grown on a range of D-serine concentrations. The class given is cell-based. The settings on record: 0, 0.3, 3 and 30 mM tested. The method, then: Somatic embryonic cell suspension cultures of Picea abies were grown on a range of D-serine concentrations; 0, 0.3, 3 and 30 mM D-serine. D-serine was lethal to cells at and above 3 mM.

The subject of data set [12] is wild type poplar. As to the kind of experiment: Shoot formation on shoot inducing media with D-Ser. The class given is in vivo.
In data set [13] the test system is Arabidopsis seedlings grown on soil. As to the kind of experiment: Selection of transgenic seedlings on soil by spraying D-Serine. The data set is classed as in vivo, Arabidopsis thaliana. The settings on record: 30 mM sprayed three times during one week.
Data set [14] deals with dsdA-transformed embryos of Picea abies. In words: Selection of dsdA-transformed embryos on D-serine medium. The class given is cell-based. The method, then: The transformation method used was particle bombardment of a cell suspension. Somatic embryonic cell suspension cultures of Picea abies were grown on a range of D-serine concentrations; 0, 0.3, 3 and 30 mM D-serine. D-serine was lethal to cells at and above 3 mM.

The subject of data set [15] is wild type tobacco. As to the kind of experiment: Shoot formation on shoot inducing media with D-Ser. The class given is in vivo.
Data set [16] deals with wild-type Arabidopsis thaliana. As to the kind of experiment: Growth of wild-type plants on sterile agar supplied with D-serine. The class given is in vivo. The conditions noted are these: for toxicity to wild-type plants: FIG. 3, FIG. 5. The procedure: as §1, with “analyses. Seeds from Solanum esculentum, Hordeum vulgare, Zea mays, Populus tremuloides, Nicotiana tabacum and Arabidopsis thaliana were surface sterilised and grown for two to three weeks on agar media identical to the nitrate free media described above and amended with 0, 0.3, 3 and 30 mM D-serine. […] For A. thaliana, clear growth inhibition is observed at a concentration of 0.3 mM D-serine in the growth medium and total growth inhibition occurs at 3 mM (FIG. 3). Transgenic Arabidopsis thaliana plants expressing the gene encoding D-serine dehydratase were grown sterile alongside wild type plants on agar for 20 days on standard MS medium supplemented with varying concentrations of D-serine as the sole N source (30 mM, 3 mM, 0.3 mM) along with a control lacking any nitrogen.” for “analyses.”

On to `CC[C@@H](C)[C@@H](N)C(=O)O` [D-ile], for which the “hindering of growth of transgenic plants expressing dao1 (compared with D-Asn)” value in data set [1] (in vivo) is “even more effective in hindering growth”. In addition, the “wild type growth with increasing concentration” value in data set [2] (examined interval 0.3 to 30 mM) is “increase in growth”. In addition, in [2] (in vivo), the “inhibitory effect on wild type plants” value is “no visible inhibitory effect”.

Take `C[C@@H](N)C(=O)O` [D-alanine]: the “effect of expressed D-amino acid oxidase on toxicity of the D-amino acid” value in data set [1] (in vivo) is “alleviate the toxicity”.

For `NC(=O)C[C@@H](N)C(=O)O` [D-Asn], in data set [1] (30 mM, sterile agar culture), the “growth / germination of D-amino oxidase expressing plants” value is on record as “total inhibition of growth; also recorded: inhibited significantly more than the wild-type”. In [2] (30 mM, sterile agar culture), the “growth of wild type plants” value is “only partially retarded”.

For the molecule `N[C@H](CO)C(=O)O` [D-serine], the “N concentration of plants compared with plants grown on 3 mM nitrate” value in data set [3] (3 mM D-serine, ANOVA p<0.0001) was “significantly lower”. For the same molecule, the “growth and N content of transgenic plants with increasing D-serine concentration” value in [3] (D-serine as sole N source, p<0.0001 (FIG. 4)) is “increase significantly”. In addition, in [3] (FIG. 4(top) and 5(top)), the “growth on D-serine compared with nitrate at equal concentration” value is “lower growth”. Besides, in [3] (in the presence of a basic level of nitrate (3 mM), p<0.0001 (FIG. 5)), the “growth and nitrogen content of transgenic plants with increasing D-serine concentration” value is given as “increased significantly”. Besides, the “toxicity symptoms in transgenic plants” value in [3] (within the observed range of D-Ser) was “no toxicity symptoms”. Besides, the “D-serine concentration in the media at which growth was inhibited” value in data set [4] was 3 mM; in data set [5], 3 mM; in data set [6], 30 mM; in [7], 3 mM; in data set [8], 30 mM; in data set [16] (nitrate free agar, two to three weeks, 0, 0.3, 3 and 30 mM tested), 3 mM. For the same molecule, the “concentration to which transformed plants were resistant” value in data set [9] and in [10] was “exceeding 30 mM” throughout. Moreover, the “effect of expressed D-amino acid oxidase on toxicity of the D-amino acid” value in data set [1] (in vivo) is recorded as “alleviate the toxicity”. The “concentration lethal to cells” value in data set [11] is at least 3 mM. For the same molecule, the results for the “concentration sufficient to stop all shoot formation” value in data set [12] and in data set [15] were 3 mM and 30 mM, respectively. In addition, the “selection of transgenic plants by spraying” value in data set [13] was “Successful selection”. Besides, in data set [14], the “D-serine concentration of medium on which transformed embryos could be selected” value was 3 mM. Further, the “growth of wild-type plants with increasing D-serine concentration” value in [16] (D-serine as sole N source, 0.3, 3, 30 mM (FIG. 3)) is on record as “No increase”. For the same molecule, the “concentration in the growth medium at which clear growth inhibition is observed” value in data set [16] (FIG. 3) is given as 0.3 mM. Besides, in data set [16] (FIG. 3), the “concentration in the growth medium at which total growth inhibition occurs” value is reported as 3 mM. Besides, the results for the “toxicity to wild-type plants” value in [16] and in data set [16] (listed as D-ser) were “toxic effect” and “shows toxicity”, respectively. Also, the “growth and nitrogen content of wild-type plants with increasing D-serine concentration” value in data set [16] (in the presence of a basic level of nitrate (3 mM) (FIG. 5)) is on record as “opposite response”.
